Results as given in patent US20110098180A1, “Herbicide-Resistant Plants, And Polynucleotides And Methods For Providing Same” (United States Department of Agriculture, priority 2002, published 2011).

Experiments:
Assay in all cases: Fluridone enzyme inhibition assay, non-His-tagged PDS (Table 1)
Assay type in all cases: biochemical, Hydrilla verticillata
Conditions in all cases: relative to Arginine
[1] = system: Hydrilla PDS Arg^304 → Glycine
Protocol: (§1) The expression constructs in Table 1 were derived from an original clone of the susceptible PDS gene from Hydrilla and then the Arg^304 was mutated to the listed amino acid. Expression was under the control of the lac promoter […] with the initiation codon of the LacZalpha-ccdB gene in the pCR4-TOPO vector (Invitrogen Inc., CA, Cat. #K4575-01).
(§2) All mutagenesis was performed, unless stated otherwise, using the TOPO-vector containing the wildtype (H4) PDS-sequence, which was extracted from an overnight culture with the Qiagen Plasmid Prep Kit as described above. The amount of the extracted plasmid was diluted to 10 ng/μl and used as template in a mutagenesis-procedure using the QuikChange Site-directed Mutagenesis Kit (Stratagene, Calif., #200518). The design of the mutagenesis-primers was conducted according to the manufacturers protocol to enable the specific change of Arg^304-codon to code for the desired amino acid. Primers (purchased from MWG-Biotech) and their introduced amino acid change are listed below with the changed codon underlined:
(§3) The reactions were performed according to the manufacturers protocol. Reactions were set up in MicroAmp-tubes on ice with 38 μl ddH2O, 5 μl 10× reaction buffer, 2 μl plasmid (10 ng/μl), 1.25 μl forward-mutagenesis primer (100 ng/μl), 1.25 μl of reverse mutagenesis primer (100 ng/μl), 1 μl dNTP-mix and 1 μl PfuTurboDNA polymerase (2.5 U/μl). The reactions were placed in a PE 9700 thermal cycler and heated to 95° C. for 30 sec followed by 12 rounds at 95° C. for 30 sec, 55° C. for 1 min and 68° C. for 12 min. The PCR was followed by a DpnI-digestion and transformation in XL1-Blue supercompetent cells as described in the manual. 4-6 resulting colonies were grown overnight in LB-medium with kanamycin and plasmid DNA was isolated as described above. The plasmid was used as template for sequencing with M13 and internal PDS-primers as described above on a LiCOR-system. Sequences were assembled and analyzed using Seqman. Introduced mutations were identified and plasmids carrying the desired mutation(s) were transferred into competent TOP10-cells, using the transformation protocol from the TOPO TA Cloning Kit. Resulting colonies were grown overnight in Wu-broth with kanamycin, aliquoted and stored at −80° C. until further use. 1 ml of Wu-cultures was used to start 1-L LB-cultures with kanamycin as described before, to express active PDS-enzyme for testing as described.
(§4) Phytoene desaturase activity and its inhibition by herbicides was determined using an in vitro system using components derived from the in vivo production of phytoene and phytoene desaturase proteins. All mutations described in Examples 3 and 4 were tested. […] The clones were used for the heterologous expression of Hydrilla-PDS-enzyme. In particular, bacterial cultures were grown from single colonies overnight in Wu-broth (6.27 g/L K2HPO4, 1.8 g/L KH2PO4, 0.5 g/L Na-citrate, 0.9 g/L (NH4)2SO4, 10 g/L tryptone, 5 g/L yeast extract, 10 g/L NaCl, 44 ml/L glycerol, 0.1 mM MgSO4, pH 7.2) with kanamycin. 1-mL was aliquoted in centrifuge tube and stored at −80° C. For expression, 1 L LB-medium with kanamycin was inoculated with 1-mL Wu-culture and grown for 24 h at 37° C. to stationary phase with shaking at 200 rpm. The cells were collected by centrifugation at 2000×g. All of the following steps were done at 4° C. unless otherwise noted. Active soluble PDS enzyme was extracted by lysing the transformed E. coli cells using a French Press at 20,000 psi in assay buffer consisting of 100 mM Tris-HCl, pH 7.2, 10 mM magnesium-chloride, 0.1 mM NADP, 0.1 mM FAD, 10 mM cysteine, 5 mM DTT, 1 mM aminocaproic acid, and 1 μg/ml leupeptin. The soluble fraction containing PDS activity was obtained by centrifugation for 10 min at 1200×g. After 24 h they were centrifuged down and used in PDS enzyme activity assays as described below.

[2] = system: Hydrilla PDS Arg^304 → Asparagine
Protocol: as §1, §2, §3, §4

[3] = system: Hydrilla PDS Arg^304 → Threonine
Protocol: as §1, §2, §3, §4

For Fluridone, the R/S [1] was 3.2, the R/S [2] was 3.2 and the R/S [3] was 40.
